# Test results published in patent US20260048076A1, “METHODS FOR DECREASING OR INHIBITING HUMAN L1 RETROTRANSPOSON RNA AND COMPOSITIONS FOR USE THEREIN” (ALTOS LABS, INC., priority 2022, published 2026).
# [FANA] = 2'-fluoro-arabino; d = 2'-deoxy (DNA)
# Key:
# Assay type in all cases: cell-based, human
# HGPS hMSCs = test: Comparison of 3TC and L1 translation blocker with L1 RNA depletion in HGPS hMSCs (senescence gene qPCR, immuno-FISH, SA-β-gal); conditions: 3TC 10 mM, translation inhibitor ASOs 20 nM
# Experimental: (§1) Tail tip fibroblasts (TTFs) were isolated from WT and LAKI mice and cultured at 37° C. in Dulbecco's Modified Eagle Medium (DMEM) (Invitrogen) containing Gluta-MAX, non-essential amino acids, and 10% fetal bovine serum (FBS, Gibco). WT and HGPS human dermal fibroblast were obtained from Coriell Biobank (WT: AG06234, AG10108, AG09309, AG10803, AG03257. HGPS: AG06917, AG11498, AG10578, AG11572, AG06297. APS: AG041100 (LMNA E578V), AG00989 (LMNA R644C), AG00990 (LMNA T10I), AG09233 (unknown mutation). WRN: AG12798; AG24467; AG06300; AG00780; AG05229). For LINE-1 knockdown, cells were incubated with 1 μM FANA ASO dissolved in culture medium (61) every 4 days and collected after two passages for senescent marker expression or immunohistochemistry. 3TC (Sigma-Aldrich) treatments were performed at 10 mM as in De Cecco et al. (11). Translation inhibitor ASOs (miRCURY LNA, Qiagen) were used at a final concentration of 20 nM and transfected with RNAiMAX (Invitrogen, Thermo Fisher Scientific) following manufacturer instructions. […]
# (§2) Cells were fixed with 4% formaldehyde in PBS at room temperature (RT) for 10 min. […] Z-stack 3D reconstruction, nuclei segmentation, and fluorescence signal quantification were performed using Imaris (v.8.4.1) using nuclei volume as a reference to normalize fluorescence signals. […]
# WRN hMSCs = test: Comparison of 3TC and L1 translation blocker with L1 RNA depletion in WRN hMSCs (senescence gene qPCR, immuno-FISH, SA-β-gal); conditions: 3TC 10 mM, translation inhibitor ASOs 20 nM
# Experimental: as §1, §2
# HGPS fibroblasts = test: Quantitative mass spectrometry proteome analysis in HGPS fibroblasts
# Experimental: (§3) Total protein extracts were prepared with RIPA buffer (50mMTris-cl pH 8.0, 5 mM EDTA, 150 mM Nacl, 15 mM Mgcl2, 1% NP-40, 1 mM PMSF and 1× Protease Inhibitor Cocktail (PIC)). Further, a sonication step was included: (30S ON, 30S OFF, 10 cycles with Bioruptor). Equal […] protein extracts were concentrated to […] volume, then diluted in 8M urea in 0.1M Tris-HCl, followed by protein digestion with trypsin, according to the FASP protocol(66). After an overnight digestion, the peptides were eluted from the filters with 25 mM ammonium bicarbonate buffer. The eluted peptides were processed in the desalting step by using Sep-Pag C18 Column (waters) based on the manufacture's instruction. Approximately 200 ng of peptide mixture per sample was analyzed using a timsTOF Pro 2 QTOF mass spectrometer coupled with a nanoElute liquid chromatography system (Bruker Daltonik GmbH, Germany). The sample was injected directly into a RP-C18 Aurora emitter column (75 μm i.d.×250 mm, 1.6 μm, 120 Å pore size) (Ion Opticks, Australia) using a one-column separation method. An 80-min gradient was established using mobile phase A (0.1% FA in H2O) and mobile phase B (0.1% FA in Acetonitrile): 2-25% B for 60 min, 25-37% for 10 min, ramping 37% to 95% in 5 min, and maintaining 95% B for 5 min. The column temperature was set at 50° C. and the flow rate at 250 nl/min. […]
# WRN fibroblasts = test: Quantitative mass spectrometry proteome analysis in WRN fibroblasts
# Experimental: as §3
Compound,"anti-aging effect (senescence-associated gene expression, H3K9me3, SA-β-gal positive cells) (HGPS hMSCs)","anti-aging effect (senescence-associated gene expression, H3K9me3, SA-β-gal positive cells) (WRN hMSCs)",protein differential expression (quantitative mass spectrometry) (HGPS fibroblasts),protein differential expression (quantitative mass spectrometry) (WRN fibroblasts)
Nc1ccn([C@@H]2CS[C@H](CO)O2)c(=O)n1 [3TC],no effect,less potent anti-aging effect compared to L1 RNA depletion,–,–
"A*C*T* T*C*C CTT CTC GCT TC*A*T*T*T* (ACTTCCCTTCTCGCTTCATTT; sugars from the 5' end [FANA]5 d11 [FANA]5, backbone and methylation of C not given here; listed as Homo sapiens) [human L1 2′F-ANA ASO #1, L1-specific 2′F-ANA modified ASO used in all human cell experiments; * denotes 2′F-ANA modified nucleotides]",–,–,ameliorated the aged phenotype also at proteome global level,ameliorated the aged phenotype also at proteome global level
